Data taken from paper PMC10590056, “Design and synthesis of cabotegravir derivatives bearing 1,2,3-triazole and evaluation of anti-liver cancer activity” (Frontiers in Pharmacology, 2023).
“And” between values parts separate entries of the source, which are not always exact repeats. Equal entries are not always repeated.

Assays:
Type in all cases: cell-based
MCF-7 cells = experiment: MTT assay for cell proliferation, MCF-7; design: key to Inhibitory rate / Inhibition rate: inhibition rate = 1 - mean A490 sample/mean A490 control (fraction); conditions: for Inhibition rate (16μM), 48 h, MCF-7: preliminary screening, MCF-7, 16 μM, mean±SD, unit not given
Procedure: (§1) HepG2, HeLa, MCF-7, and KYSE-30 cells were grown in a humidified incubator at 37°C with 5% CO2 in DMEM supplemented with 10% fetal bovine serum (FBS), […] streptomycin, and 100 U/mL penicillin.
(§2) When HepG2 cells reached 80% confluence, they were treated with 1 mL of trypsin and resuspended at a density of 10^5 cells/mL. Then, 100 μL of cell suspension was seeded into each well of a 96-well plate and incubated in a humidified atmosphere. The different concentrations of KJ-5 and KJ-12 (0, 1, 2, 4, 8, 16, and 32 μM) were added to each well, and the cells were further incubated for 48 h. Afterward, 20 μL of the MTT solution (5 mg/mL) was added to each well, and incubation was continued for another 4 h. The supernatant was discarded, and 200 μL of the DMSO solution was added to each well. The plate was shaken for 10 min in the dark. The absorbance values were measured at 490 nm using an enzyme-linked detector. The cell inhibition rate (%) was calculated using the following formula: (1-Mean A490 sample/Mean A490 control) × 100%.

HeLa cells = experiment: MTT assay for cell proliferation, HeLa; design: key to Inhibitory rate: inhibition rate = 1 - mean A490 sample/mean A490 control (fraction); conditions: Hela; for Inhibitory rate / ODtreated/ODcontrol: fraction, per experiment; for Inhibition rate (16μM), 48 h, Hela: preliminary screening, mean±SD, unit not given
Procedure: as §1, §2

HepG2 cells = experiment: MTT assay for cell proliferation and cytotoxicity, HepG2; design: key to Inhibitory rate: inhibition rate = 1 - mean A490 sample/mean A490 control (fraction); conditions: for IC50: HepG2, 48 h, MTT; for Inhibitory rate / ODtreated/ODcontrol: HepG2, fraction, per experiment; for Inhibition rate (16μM), 48 h, HepG2: preliminary screening, HepG2, 16 μM, mean±SD, unit not given
Procedure: as §1, §2

KYSE-30 cells = experiment: MTT assay for cell proliferation, KYSE-30; design: key to Inhibitory rate: inhibition rate = 1 - mean A490 sample/mean A490 control (fraction); conditions: for Inhibitory rate: KYSE-30, given as fraction; for Inhibition rate (16μM), 48 h, KYSE-30: preliminary screening, KYSE-30, 16 μM, mean±SD, unit not given
Procedure: as §1, §2

[1] = MCF-7, fraction, per experiment
[2] = given as fraction, second of three experiments
[3] = given as fraction, third of three experiments
[4] = KYSE-30, first of three experiments
[5] = KYSE-30, second of three experiments
[6] = KYSE-30, third of three experiments

SMILES: COc1c2n(cc(C(=O)Nc3cccc(-c4cn(-c5ccccc5F)nn4)c3)c1=O)C[C@H]1OC[C@H](C)N1C2=O [KJ-2]
- Inhibitory rate (MCF-7 cells; [1]): 0.5009
- ODtreated/ODcontrol (MCF-7 cells; [1]): 0.4991
- Inhibitory rate (MCF-7 cells; [2]): 0.4718
- Inhibition rate (MCF-7 cells; [3]): 0.4501
- Inhibition rate (16μM), 48 h, MCF-7 (MCF-7 cells): 47.43±2.55
- ODtreated/ODcontrol (MCF-7 cells; second of three experiments): 0.5282
- ODtreated/ODcontrol (MCF-7 cells; third of three experiments): 0.5499
- Inhibitory rate (HeLa cells): 0.497 and 0.5116 and 0.431
- ODtreated/ODcontrol (HeLa cells): 0.503 and 0.4884 and 0.569
- Inhibition rate (16μM), 48 h, Hela (HeLa cells): 47.99±4.29
- IC50 (HepG2 cells): 25.3 ± 2.07 µM
- Inhibitory rate (HepG2 cells): 0.513 and 0.5093 and 0.5087
- ODtreated/ODcontrol (HepG2 cells): 0.487 and 0.4907 and 0.4913
- Inhibition rate (16μM), 48 h, HepG2 (HepG2 cells): 51.03±0.23
- ODtreated/ODcontrol (KYSE-30 cells; [4]): 0.5011
- Inhibitory rate (KYSE-30 cells; first of three experiments): 0.4989
- Inhibitory rate (KYSE-30 cells; second of three experiments): 0.4582
- Inhibitory rate (KYSE-30 cells; third of three experiments): 0.3717
- ODtreated/ODcontrol (KYSE-30 cells; [5]): 0.5418
- ODtreated/ODcontrol (KYSE-30 cells; [6]): 0.6283
- Inhibition rate (16μM), 48 h, KYSE-30 (KYSE-30 cells): 44.92±6.50

SMILES: COc1c2n(cc(C(=O)Nc3cccc(-c4cn(-c5ccc(C(F)(F)F)cc5)nn4)c3)c1=O)C[C@H]1OC[C@H](C)N1C2=O [KJ-10]
- Inhibitory rate (MCF-7 cells; [1]): 0.366
- ODtreated/ODcontrol (MCF-7 cells; [1]): 0.634
- Inhibitory rate (MCF-7 cells; [2]): 0.3141
- Inhibition rate (MCF-7 cells; [3]): 0.2908
- Inhibition rate (16μM), 48 h, MCF-7 (MCF-7 cells): 33.36±3.87
- ODtreated/ODcontrol (MCF-7 cells; second of three experiments): 0.6859
- ODtreated/ODcontrol (MCF-7 cells; third of three experiments): 0.7092
- Inhibitory rate (HeLa cells): 0.353 and 0.3445 and 0.3223
- ODtreated/ODcontrol (HeLa cells): 0.647 and 0.6555 and 0.6777
- Inhibition rate (16μM), 48 h, Hela (HeLa cells): 33.99±1.59
- IC50 (HepG2 cells): > 50 µM
- Inhibitory rate (HepG2 cells): 0.3299 and 0.3414 and 0.3063
- ODtreated/ODcontrol (HepG2 cells): 0.6701 and 0.6586 and 0.6937
- Inhibition rate (16μM), 48 h, HepG2 (HepG2 cells): 32.59±1.79
- ODtreated/ODcontrol (KYSE-30 cells; [4]): 0.6507
- Inhibitory rate (KYSE-30 cells; first of three experiments): 0.3493
- Inhibitory rate (KYSE-30 cells; second of three experiments): 0.2142
- Inhibitory rate (KYSE-30 cells; third of three experiments): 0.2217
- ODtreated/ODcontrol (KYSE-30 cells; [5]): 0.7858
- ODtreated/ODcontrol (KYSE-30 cells; [6]): 0.7783
- Inhibition rate (16μM), 48 h, KYSE-30 (KYSE-30 cells): 26.17±7.59

SMILES: COc1c2n(cc(C(=O)Nc3cccc(-c4cn(-c5ccccc5C(F)(F)F)nn4)c3)c1=O)C[C@H]1OC[C@H](C)N1C2=O [KJ-1]
- Inhibitory rate (MCF-7 cells; [1]): 0.4609
- ODtreated/ODcontrol (MCF-7 cells; [1]): 0.5391
- Inhibitory rate (MCF-7 cells; [2]): 0.4929
- Inhibition rate (MCF-7 cells; [3]): 0.3773
- Inhibition rate (16μM), 48 h, MCF-7 (MCF-7 cells): 44.37±5.97
- ODtreated/ODcontrol (MCF-7 cells; second of three experiments): 0.5071
- ODtreated/ODcontrol (MCF-7 cells; third of three experiments): 0.6227
- Inhibitory rate (HeLa cells): 0.456 and 0.4789 and 0.3414
- ODtreated/ODcontrol (HeLa cells): 0.544 and 0.5211 and 0.6586
- Inhibition rate (16μM), 48 h, Hela (HeLa cells): 44.98±3.26
- IC50 (HepG2 cells): 13.6 ± 1.09 µM
- Inhibitory rate (HepG2 cells): 0.48 and 0.4907 and 0.4342
- ODtreated/ODcontrol (HepG2 cells): 0.52 and 0.5093 and 0.5658
- Inhibition rate (16μM), 48 h, HepG2 (HepG2 cells): 46.83±3.00
- ODtreated/ODcontrol (KYSE-30 cells; [4]): 0.5729
- Inhibitory rate (KYSE-30 cells; first of three experiments): 0.4271
- Inhibitory rate (KYSE-30 cells; second of three experiments): 0.3646
- Inhibitory rate (KYSE-30 cells; third of three experiments): 0.3875
- ODtreated/ODcontrol (KYSE-30 cells; [5]): 0.6354
- ODtreated/ODcontrol (KYSE-30 cells; [6]): 0.6125
- Inhibition rate (16μM), 48 h, KYSE-30 (KYSE-30 cells): 39.31±3.16

SMILES: COc1c2n(cc(C(=O)Nc3cccc(-c4cn(-c5ccc(F)cc5)nn4)c3)c1=O)CC1OCC(C)N1C2=O (centres unmarked) [KJ-14]
- Inhibitory rate (MCF-7 cells; [1]): 0.4819
- ODtreated/ODcontrol (MCF-7 cells; [1]): 0.5181
- Inhibitory rate (MCF-7 cells; [2]): 0.5123
- Inhibition rate (MCF-7 cells; [3]): 0.5403
- Inhibition rate (16μM), 48 h, MCF-7 (MCF-7 cells): 51.15±2.92
- ODtreated/ODcontrol (MCF-7 cells; second of three experiments): 0.4877
- ODtreated/ODcontrol (MCF-7 cells; third of three experiments): 0.4597
- Inhibitory rate (HeLa cells): 0.494 and 0.5678 and 0.4688
- ODtreated/ODcontrol (HeLa cells): 0.506 and 0.4322 and 0.5312
- Inhibition rate (16μM), 48 h, Hela (HeLa cells): 51.02±5.15
- IC50 (HepG2 cells): 9.94 ± 0.78 µM
- Inhibitory rate (HepG2 cells): 0.5683 and 0.5455 and 0.5583
- ODtreated/ODcontrol (HepG2 cells): 0.4317 and 0.4545 and 0.4417
- Inhibition rate (16μM), 48 h, HepG2 (HepG2 cells): 55.74±1.15
- ODtreated/ODcontrol (KYSE-30 cells; [4]): 0.5122
- Inhibitory rate (KYSE-30 cells; first of three experiments): 0.4878
- Inhibitory rate (KYSE-30 cells; second of three experiments): 0.5323
- ODtreated/ODcontrol (KYSE-30 cells; [5]): 0.4677
- Inhibition rate (16μM), 48 h, KYSE-30 (KYSE-30 cells): 52.98±4.08

SMILES: C[C@H]1CO[C@@H]2Cn3cc(C(=O)NCc4ccc(F)cc4F)c(=O)c(O)c3C(=O)N12 [Cabotegravir]
- IC50 (HepG2 cells; Homo sapiens): > 50 µM
